# Results taken from patent US20090012088A1 (priority 2005, published 2009).
# Tests used:
# [1] = system: MPTP-treated C57 Black mice; experiment: MPTP mouse model of PD, striatal monoamine levels; type: in vivo
# Protocol: As a prelude to assessment of PIP-1 in a mouse model of PD, the ability of PIP-1 to penetrate the blood-brain-barrier is first assessed. PIP-1 is injected i.p. at a dose of 50 mg/kg, and mice are sacrificed at 1 and 2 h post injection. After sacrifice, to establish the presence of PIP-1 in the brain the striatum was dissected, sonicated in perchloric acid, and centrifuged. The clarified supernatant is analyzed by HPLC. No endogenous compounds interfere with this assay for PIP-1 as no signal is detected in dissected striata from non-treated mice. As shown by FIG. 21A, the striatal penetrance of PIP-1 is at the level of 70 ng/mg of protein. […] Given this blood-brain-barrier penetrance by PIP-1, the compound is assessed in the MPTP mouse model of PD. Mice are given a one-time i.p. injection of PIP-1 followed 30 minutes later by an injection of MPTP (30 mg/kg). PIP-1 is assessed at concentrations of 0 mg/kg, 1 mg/kg, 5 mg/kg, 10 mg/kg, and 50 mg/kg, and five mice are used in each group. After 30 days, the mice are sacrificed and the striatum dissected and analyzed by HPLC to determine the levels of dopamine and various dopamine metabolites. […]
# [2] = system: poly(ADP-ribose) in PC-12 cells; experiment: Intracellular PAR staining in H2O2-treated PC-12 cells (flow cytometry); type: cell-based; details: PC-12 cells pre-treated with PIP-1, then H2O2
# Protocol: Screening of the 22,000 compounds in this manner produced 38 primary hits (FIG. 15A—“initial hits”). These 38 compounds are assessed for their ability to inhibit PARP-1 and PARG using standard in vitro assays. (12, 29) 20 compounds are PARP-1 inhibitors, and 3 are PARG inhibitors (FIG. 15A). Compounds 1 and 2 inhibit PARG quite well, with IC50 values of ˜0.4-0.5 μM (FIG. 15C). […] Subsequent efforts therefore focused on compound 1, which is named PIP-1 (pyridazinone inhibitor of PARG), and derivatives thereof. […] To determine if PIP-1 could induce the build-up of PAR in cell culture, PC-12 cells were treated with a range of PIP-1 concentrations; H2O2 was then added to induce PARP-1 activity and the cellular PAR levels were quantitated with an anti-PAR antibody and flow cytometry.
# Intracellular PAR staining: 1 mL of 10^6 cells/mL PC-12 cells is added to the wells of a 24-well plate. Varying concentrations of PIP-1 or DMSO as a control are added to the cells and incubated for 2 h at 37° C. H2O2 is added to the cells to approximately […]. After a 2 h incubation at 37° C., the cells are thoroughly washed in PBS and fixed overnight in 4° C. ethanol. The cells are again washed in PBS and stained with a 1:50 dilution of anti-poly(ADP-ribose) antibody for 4 h at 4° C. […] After washing with PBS, the fluorescent intensity of each cell is determined by flow cytometry.
# [3] = Assessment of PIP-1 levels in the brain (blood-brain-barrier penetrance); type: in vivo, mice; details: 50 mg/kg i.p.
# Protocol: As a prelude to assessment of PIP-1 in a mouse model of PD, the ability of PIP-1 to penetrate the blood-brain-barrier is first assessed. PIP-1 is injected i.p. at a dose of 50 mg/kg, and mice are sacrificed at 1 and 2 h post injection. After sacrifice, to establish the presence of PIP-1 in the brain the striatum was dissected, sonicated in perchloric acid, and centrifuged. The clarified supernatant is analyzed by HPLC. No endogenous compounds interfere with this assay for PIP-1 as no signal is detected in dissected striata from non-treated mice. As shown by FIG. 21A, the striatal penetrance of PIP-1 is at the level of 70 ng/mg of protein. […] Given this blood-brain-barrier penetrance by PIP-1, the compound is assessed in the MPTP mouse model of PD. […] PIP-1 is assessed at concentrations of 0 mg/kg, 1 mg/kg, 5 mg/kg, 10 mg/kg, and 50 mg/kg, and five mice are used in each group. After 30 days, the mice are sacrificed and the striatum dissected and analyzed by HPLC to determine the levels of dopamine and various dopamine metabolites.
# Assessment of PIP-1 levels in the brain: PIP-1 was injected into mice i.p. at 50 mg/kg and were sacrificed at 1 and 2 h post injection. […] The clarified supernatant was then injected into an HPLC and the concentration of PIP-1 was determined by comparison to a standard curve. […]
smiles,measurement,setting,value
"CN(C)c1cnn(-c2ccccc2)c(=O)c1N [PIP-1, 4-Amino-5-dimethylamino-2-phenyl-2H-pyridazin-3-one]","Striatal levels of dopamine and dopamine metabolites (DOPAC, HVA) in MPTP-treated mice","[1]; 50 mg/kg PIP-1 i.p. 30 min before MPTP 30 mg/kg, after 30 days",very similar to the control mice
same,Effect of PIP-1 by itself on levels of dopamine or dopamine metabolites,"[1]; mice, without MPTP",does not appear to have any adverse effects
same,Accumulation of intracellular PAR,[2],dose-dependent accumulation of intracellular PAR
same,Striatal penetrance of PIP-1,"[3]; mice, 1 and 2 h post injection, striatum",70 ng/mg of protein
same,PIP-1 in peripheral blood,[3]; same time points,no detectable PIP-1
